Where a name gives a salt, the structure may show the parent alone.
The molecules below were run against T1, Rat brain protein farnesyltransferase (Rattus norvegicus, UniProt Q02293+Q04631) (assay: In vitro inhibition of protein farnesyltransferase, Amersham scintillation proximity assay with biotin-K Ras B fragment). Conditions: Inhibition of farnesyltransferase; compound at 1 × 10^−6 M (Table 2).
T1 construct: The enzyme is purified according to Reiss, Y., et al., Cell, 62: 81-88 (1990), utilizing steps one through three; from tissue; host or cells: rat brain
Assay type: biochemical

Row | Structure (SMILES) | % inhibition at 1 × 10^−6 M
1 | CSCC[C@H](NC(=O)c1ccc(NC(=O)c2cnccc2C(F)(F)F)cc1-c1ccccc1C)C(=O)[O-].[Li+] [Example 481, N-[4-N-(4-Trifluoromethylnicotinoyl)amino-2-(2-methylphenyl)benzoyl]methionine Lithium Salt] | 95%
2 | CSCC[C@H](NC(=O)c1ccc(CN(C(=O)c2ccccc2)c2cccnc2)cc1-c1ccccc1C)C(=O)O [Example 569, N-[4-N-Benzoyl-N-pyrid-3-ylaminomethyl-2-(2-methylphenyl)benzoyl]methionine] | 91%

Same assay, conditions: Inhibition of farnesyltransferase; compound at 1 × 10^−6 M (Table 2); read-out: % inhibition at 1 × 10^−6 M

Row | Structure (SMILES) | inhibition at 1 µM
3 | Cc1ccccc1-c1cc(/C=C/c2cnc3ccccc3c2)ccc1C(=O)N[C@@H](CC[S+](C)[O-])C(=O)O (some centres unmarked) [Example 488] | 41%
4 | CSCC[C@H](NC(=O)c1ccc(CN(Cc2ccccc2)c2cccnc2)cc1-c1ccccc1C)C(=O)OCOC(C)=O [Example 499, Acetoxymethyl N-[4-N-Benzyl-N-pyridin-3-ylaminomethyl-2-(2-methylphenyl)benzoyl]methionine] | 98%
5 | CSCC[C@H](NC(=O)c1ccc(CN(Cc2ccccc2)c2cccnc2)cc1-c1ccccc1C)C(=O)OCOC(=O)C(C)(C)C [Example 500, Pivaloyloxymethyl N-[4-N-Benzyl-N-pyridin-3-ylaminomethyl-2-(2-methylphenyl)benzoyl]methionine] | 98%
6 | CCN(CC)C(=O)COC(=O)[C@H](CCSC)NC(=O)c1ccc(CN(Cc2ccccc2)c2cccnc2)cc1-c1ccccc1C [Example 501, N,N-Diethylaminocarbonylmethyl N-[4-N-benzyl-N-pyridin-3-ylaminomethyl-2-(2-methylphenyl)benzoyl]methionine] | 84%
7 | CSCC[C@H](NC(=O)c1ccc(/C=C/c2cccnc2)cc1-c1ccccc1C)C(N)=O [Example 796, N-[4-(2-Pyrid-3-ylethen-1-yl)-2-(2-methylphenyl)benzoyl]methioninamide] | 35%
8 | CSCC[C@H](NC(=O)c1ccc(/C=C/c2cccnc2)cc1-c1ccccc1C)C(=O)NC(=O)c1ccccc1 [Example 797, Benzoyl N-[4-(2-Pyrid-3-ylethen-1-yl)-2-(2-methylphenyl)benzoyl]methioninamide] | 35%
9 | CCc1cc(C(=O)N[C@@H](CCSC)C(=O)O)c(-c2ccccc2C)cc1COc1cccnc1 [Example 918, N-[5-Ethyl-4-(pyrid-3-yloxymethyl)-2-(2-methylphenyl)benzoyl]methionine] | 97%

Same assay, conditions: Inhibition of farnesyltransferase; compound at 1 × 10^−7 M (Table 3); read-out: % inhibition at 1 × 10^−7 M

Row | Structure (SMILES) | inhibition at 0.1 µM
10 | CSCC[C@H](NC(=O)c1ccc(/C=C/c2cnccc2C2(O)CCCCC2)cc1-c1ccccc1C)C(=O)O [Example 482, N-[4-(2-(4-Cyclohexan-1-ol-1-yl)-pyrid-3-ylethen-1-yl)-2-(2-methylphenyl)benzoyl]methionine Lithium Salt] | 96%
11 | CSCC[C@H](NC(=O)c1ccc(/C=C/c2cnccc2C(=O)c2ccccc2)cc1-c1ccccc1C)C(=O)O [Example 483, N-[4-(2-(4-Benzoyl)pyrid-3-ylethen-1-yl)-2-(2-methylphenyl)benzoyl]methionine Lithium Salt] | 95%
12 | CSCC[C@H](NC(=O)c1ccc(/C=C/c2cnccc2C(O)c2ccccc2)cc1-c1ccccc1C)C(=O)O (stereo partly drawn) [Example 484, N-[4-(2-(4-α-Hydroxybenzyl)pyrid-3-ylethen-1-yl)-2-(2-methylphenyl)benzoyl]methionine Lithium Salt] | 97%
13 | CSCC[C@H](NC(=O)c1ccc(CCc2cnccc2C(O)c2ccccc2)cc1-c1ccccc1C)C(=O)O (stereo partly drawn) [Example 485, N-[4-(2-(4-α-Hydroxybenzyl)pyrid-3-ylethyl)-2-(2-methylphenyl)benzoyl]methionine Lithium Salt] | 96%
14 | CSCC[C@H](NC(=O)c1ccc(/C=C/c2cnccc2C(O)C2CCCCC2)cc1-c1ccccc1C)C(=O)O (some centres unmarked) [Example 486, N-[4-(2-(4-(1-Cyclohexyl)hydroxmethyl)pyrid-3-ylethen-1-yl)-2-(2-methylphenyl)benzoyl]methionine Lithium Salt] | 97%
15 | CSCC[C@H](NC(=O)c1ccc(CN(c2cccnc2)S(=O)(=O)c2ccccc2)cc1-c1ccccc1C)C(=O)O [Example 570, N-[4-N-Phenylsulfonyl-N-pyrid-3-ylaminomethyl-2-(2-methylphenyl)benzoyl]methionine] | 92%
16 | CSCC[C@@H](C(=O)O)N(C)C(=O)c1ccc(CN(Cc2ccccc2)c2cccnc2)cc1-c1ccccc1C [Example 602, N-[4-(N-Benzyl-N-pyrid-3-ylaminomethyl)-2-(2-methylphenyl)benzoyl]-N-methylmethionine] | 97%
17 | CSCCC(OC(=O)c1ccc(/C=C/c2cccnc2)cc1-c1ccccc1C)C(=O)O (centres unmarked) [Example 814, 2-[4-(2-Pyrid-3-ylethen-1-yl)-2-(2-methylphenyl)benzoyl]oxy-4-methylthiobutanoic Acid] | 81%
18 | CSCC[C@H](NC(=O)c1ccc(CCc2cccnc2)cc1-c1ccccc1C)/C(=N/O)NO [Example 815, N-[4-(2-Pyrid-3-yleth-1-yl)-2-(2-methylphenyl)benzoyl]methionine N,N-Dihydroxyamidine] | 71%
19 | CSCC[C@H](NC(=O)c1ccc(C#Cc2cccnc2)cc1-c1ccccc1C)C(=O)O [Example 865, N-[4-(2-Pyrid-3-ylethyn-1-yl)-2-(2-methylphenyl)benzoyl]methionine] | 95%
20 | CCCCCc1cc(C(=O)N[C@@H](CCSC)C(=O)O)c(-c2ccccc2C)cc1COc1cccnc1 [Example 919, N-[5-Pentyl-4-(pyrid-3-yloxymethyl)-2-(2-methylphenyl)benzoyl]methionine] | 91%

Same assay, conditions: Inhibition of farnesyltransferase; compound at 1 × 10^−8 M (Table 4); read-out: % inhibition at 1 × 10^−8 M

Row | Structure (SMILES) | inhibition at 0.01 µM
21 | CSCC[C@H](NC(=O)c1ccc(CN(CC2CCCCC2)c2cccnc2)cc1-c1ccccc1C)C(=O)O [Example 408] | > 95%
22 | CSCC[C@H](NC(=O)c1ccc(CN(Cc2ccccc2)c2cccnc2)cc1-c1ccccc1C(F)(F)F)C(=O)O [Example 409, [4-(N-Benzyl-N-3-pyridylaminomethyl)-2-(2-trifluoromethylphenyl)benzoyl]methionine] | 84%
23 | CSCC[C@H](NC(=O)c1ccc(CN(Cc2ccccc2)c2cncc(F)c2)cc1-c1ccccc1C)C(=O)O [Example 410, [4-(N-Benzyl-N-3-(5-fluorolpyridyl)aminomethyl)-2-(2-methylphenyl)benzoyl]methionine] | 94%
24 | CSCC[C@H](NC(=O)c1ccc(COc2cccnc2)cc1-c1ccccc1)C(=O)NS(=O)(=O)N1CCSCC1 [Example 603, Thiomorpholinesulfonyl N-2-[4-(Pyrid-3-yloxymethyl)-2-phenylbenzoyl]amino-4-methylthiobutanamide] | 94%
25 | CC[C@H](NC(=O)c1ccc(COc2cccnc2)cc1-c1ccccc1)C(=O)O [Example 760, (2S)-2-N-[4-(3-Pyridyloxymethyl)-2-phenylbenzoyl]aminobutanoic Acid] | 95%
26 | CSCC[C@H](NC(=O)c1ccc(COc2cccnc2)cc1-c1ccc(F)cc1Cl)C(=O)O [Example 871, N-[4-(Pyrid-3-yloxymethyl)-2-(2-chloro-4-fluorophenyl)benzoyl]methionine] | 94%
27 | CSCC[C@H](NC(=O)c1ccc(CN(Cc2ccccc2)c2cccnc2)cc1-c1ccc(F)cc1Cl)C(=O)O [Example 873, N-(4-(N-Benzyl-N-pyrid-3-ylaminomethyl)-2-(2-chloro-4-fluorophynel)beonzoyl)methionine] | 97%
28 | CSCC[C@H](NC(=O)c1cc(Cc2ccccc2)c(CN(Cc2ccccc2)c2cccnc2)cc1-c1ccccc1C)C(=O)O [Example 920, N-[5-Benzyl-4-(N-pyrid-3-yl-N-benzylaminomethyl)-2-(2-metbylphenyl)benzoyl]methionine] | 96%

Same assay, conditions: read-out: % inhibition at 1 × 10^−6 M

Row | Structure (SMILES) | inhibition at 1 µM
29 | CSCC[C@H](NC(=O)c1ccc(C(=O)N(Cc2ccccc2)c2cccnc2)cc1-c1ccccc1C)C(=O)O [Example 451, N-[4-(N-3-Pyridyl-N-benzyl)carbonyl-2-(2-methylphenyl)benzoyl]methionine] | 85%
30 | CNCCc1cnc[nH]1 [Example 722] | 96%

Same assay, conditions: read-out: % inhibition at 1 × 10^−7 M

Row | Structure (SMILES) | inhibition at 0.1 µM
31 | CSCC[C@H](NC(=O)c1ccc(CCc2cncc3ccccc23)cc1-c1ccccc1C)C(=O)O [Example 492, N-[4-(2-Isoquinolin-4-ylethyl)-2-(2-methylphenyl)benzoyl]methionine Lithium Salt] | 95%
32 | CSCC[C@H](NC(=O)c1ccc(CCc2cncc(Cc3ccccc3)c2)cc1-c1ccccc1C)C(=O)O [Example 799, Lithium Salt] | 96%
33 | CSCC[C@H](NC(=O)c1ccc(C=Cc2ccc(Oc3ccccc3)nc2)cc1-c1ccccc1C)C(=O)O [Example 800, N-[4-(2-(6-Phenyloxypyrid-3-yl)ethen-1-yl)-2-(2-methylphenyl)benzoyl]methionine Lithium Salt] | 74%
34 | CSCC[C@H](NC(=O)c1ccc(CCc2ccc(Oc3ccccc3)nc2)cc1-c1ccccc1C)C(=O)O [Example 801, N-[4-(2-(6-Phenyloxypyrid-3-yl)ethyl)-2-(2-methylphenyl)benzoy]methionine Lithium Salt] | 87%
35 | CSCC[C@H](NC(=O)c1ccc(/C=C/c2ccc(Oc3ccccc3Cl)nc2)cc1-c1ccccc1C)C(=O)O [Example 802, Lithium Salt] | 88%
36 | CSCC[C@H](NC(=O)c1ccc(COc2cccnc2)cc1-c1c(C)noc1C)C(=O)O [Example 823] | 75%

Same assay, conditions: read-out: % inhibition at 1 × 10^−8 M

Row | Structure (SMILES) | inhibition at 0.01 µM
37 | CSCC[C@H](NC(=O)c1ccc(/C=C/c2cnccc2C(O)C23CC4CC(CC(C4)C2)C3)cc1-c1ccccc1C)C(=O)O (some centres unmarked) [Example 803, Lithium Salt] | 95%
38 | CSCC[C@H](NC(=O)c1ccc(/C=C/c2cnccc2C(O)(c2ccccc2)c2ccccc2)cc1-c1ccccc1C)C(=O)O [Example 805, Lithium Salt] | 96%

Source: patent publication US6693123B2 (University of Pittsburgh, priority 1995, dated 2004)
